We go through 1 compound from US20240197738A1, “COMPOUND 7AI IN TREATING EWING SARCOMA BY INHIBITING OTUD7A” (The University of North Carolina at Chapel Hill, priority 2021, published 2024).

Structures are written as SMILES.

For one assay, the system named is EWS-FLI1 mRNA. Description: RT-PCR of EWS-FLI1 mRNA levels. The format is cell-based, human. As to conditions: 7Ai treatment. The method, then:
(§1) Cells were isolated by dissociation with 0.05% Trypsin, followed by media quenching. The cells were spun down at 300×rcf for 5 minutes. The media was aspirated, the pellet was suspended with 1×PBS, and then the cells were spun down again. The PBS was aspirated. RNA extraction was performed with an RNA extraction kit (BioBasic BS584). The final elution step was done with 50 μL of RNAse-free water. The […] with the NanoDrop OneC (Thermo Fisher Scientific). Three biological replicates were performed for RNA extraction. Quartile analysis was done to exclude outliers and significance was determined by one-way ANOVA tests.

The target of assay [1] is T1, OTUD7A-mediated deubiquitination of EWS-FLI1 (Homo sapiens, UniProt Q8TE49).
T1 construct: Myc-Flag; expressed in transfected cells; host or cells: HEK293T
Description: Ni-NTA pulldown ubiquitination assay in HEK293T cells. The assay is classed as cell-based. The note with it: compound added 10 hrs prior to cell collection (FIG. 5C). The method, then: Cells were lysed in EBC buffer (50 mM Tris pH 7.5, 120 mM NaCl, 0.5% NP-40) or Triton X-100 buffer (50 mM Tris pH 7.5, 150 mM NaCl, 1% Triton X-100) supplemented with protease inhibitors (Complete Mini, Roche) and phosphatase inhibitors (phosphatase inhibitor cocktail set I and II, Calbiochem). The protein concentrations of whole cell lysates were measured by NanoDrop OneC using the Bio-Rad protein assay reagent as described previously. Equal amounts of whole cell lysates were resolved by SDS-PAGE and immunoblotted with indicated antibodies. For immunoprecipitations analysis, unless specified, 1000 μg lysates were incubated with the indicated antibody (1-2 μg) for 3-4 hr at 4° C. followed by 1 hr incubation with 10 μL Protein A magnetic beads (New England Biolabs). Or 1000 μg lysates containing tagged molecules were incubated with agarose beads coupled antibodies for the specific tag for 3-4 hr at 4° C. For endogenous IPs, incubation of cell lysates with antibodies was extended to overnight. The recovered immuno-complexes were washed five times with NETN buffer (20 mM Tris, pH 8.0, 100 mM NaCl, 1 mM EDTA and 0.5% NP-40) before being resolved by SDS-PAGE and immunoblotted with indicated antibodies.

Assay [2] has as its system EWS-FLI1 target genes (NKX2.2, PSPH, LOX, TGFBR2). Description: RT-PCR of EWS-FLI1 downstream target genes. The format is cell-based, human. The protocol: as §1

T1 sequence (Q8TE49 whole entry): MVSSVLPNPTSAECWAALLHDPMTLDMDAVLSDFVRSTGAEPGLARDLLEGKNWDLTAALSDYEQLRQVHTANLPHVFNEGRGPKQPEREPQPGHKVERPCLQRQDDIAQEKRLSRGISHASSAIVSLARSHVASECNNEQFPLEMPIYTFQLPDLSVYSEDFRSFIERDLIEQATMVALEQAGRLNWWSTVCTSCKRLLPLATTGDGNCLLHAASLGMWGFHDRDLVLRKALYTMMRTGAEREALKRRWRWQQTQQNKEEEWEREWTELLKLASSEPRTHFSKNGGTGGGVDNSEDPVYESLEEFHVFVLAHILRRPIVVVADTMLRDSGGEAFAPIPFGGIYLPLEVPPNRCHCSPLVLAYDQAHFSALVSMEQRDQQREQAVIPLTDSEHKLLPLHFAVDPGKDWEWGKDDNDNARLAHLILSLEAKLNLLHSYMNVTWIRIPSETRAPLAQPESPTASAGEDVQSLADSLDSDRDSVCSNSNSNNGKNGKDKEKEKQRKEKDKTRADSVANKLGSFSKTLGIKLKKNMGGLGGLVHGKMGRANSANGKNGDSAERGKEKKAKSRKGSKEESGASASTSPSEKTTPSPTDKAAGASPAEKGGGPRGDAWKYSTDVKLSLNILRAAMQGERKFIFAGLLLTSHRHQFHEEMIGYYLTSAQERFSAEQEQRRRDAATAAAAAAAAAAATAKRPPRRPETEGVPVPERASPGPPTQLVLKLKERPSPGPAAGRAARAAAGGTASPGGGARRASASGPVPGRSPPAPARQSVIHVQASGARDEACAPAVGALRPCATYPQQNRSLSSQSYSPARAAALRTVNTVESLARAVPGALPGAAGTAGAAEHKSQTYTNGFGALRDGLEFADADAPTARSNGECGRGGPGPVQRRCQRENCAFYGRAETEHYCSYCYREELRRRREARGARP

Take `Cn1nccc1-c1cc(-c2ccnn2C)n2nc(C(=O)Nc3cnn(Cc4c(Cl)cccc4Cl)c3)cc2n1` [7Ai]: the “EWS-FLI1 mRNA levels” value in the assay on EWS-FLI1 mRNA was “did not affected EWS-FLI1 mRNA levels”. Besides, the “OTUD7A-mediated deubiquitination of EWS-FLI1 in cells” value in assay [1] is given as “efficiently blocked OTUD7A-mediated deubiquitination of EWS-FLI1”. Also, in assay [2] (A673 cells (FIGS. 5K-5L)), the “transcription of EWS-FLI1 target genes NKX2.2 and PSPH” value is listed as “reduced transcription of EWS-FLI1 target genes”. Also, the “transcription of genes negatively regulated by EWS-FLI1 (LOX and TGFBR2)” value in assay [2] (A673 cells (FIGS. 5M-5N)) is “increased transcription of genes negatively regulated by EWS-FLI1”.
